Where two headings read alike, the source gives them in different places.
Tests used:
Glucocorticoid Receptor = biological target: T1, Glucocorticoid Receptor (Homo sapiens, UniProt P04150); assay: Trans-Activation Modulation of Glucocorticoid Receptor (GRAMMER), MMTV-LUC reporter gene in A549 cells; assay type: cell-based; conditions: Table 1; for Emax: A549, A549 cells, read-out: Transactivation A549 Cells GRAMMER Emax; for Emax / Transactivation A549 Cells GRAMMER Emax: Emax relative to 300 nM dexamethasone; for EC50: inflection point, read-out: Transactivation A549 Cells GRAMMER IP; for EC50 / Transactivation A549 Cells GRAMMER Emax: A549 cells
T1 construct: These cells express large amount of the GR and are very responsive to GC treatment; endogenous in cells; host or cells: A549 cells transiently transfected with the MMTV-LUC reporter
T1 sequence (P04150 1-777): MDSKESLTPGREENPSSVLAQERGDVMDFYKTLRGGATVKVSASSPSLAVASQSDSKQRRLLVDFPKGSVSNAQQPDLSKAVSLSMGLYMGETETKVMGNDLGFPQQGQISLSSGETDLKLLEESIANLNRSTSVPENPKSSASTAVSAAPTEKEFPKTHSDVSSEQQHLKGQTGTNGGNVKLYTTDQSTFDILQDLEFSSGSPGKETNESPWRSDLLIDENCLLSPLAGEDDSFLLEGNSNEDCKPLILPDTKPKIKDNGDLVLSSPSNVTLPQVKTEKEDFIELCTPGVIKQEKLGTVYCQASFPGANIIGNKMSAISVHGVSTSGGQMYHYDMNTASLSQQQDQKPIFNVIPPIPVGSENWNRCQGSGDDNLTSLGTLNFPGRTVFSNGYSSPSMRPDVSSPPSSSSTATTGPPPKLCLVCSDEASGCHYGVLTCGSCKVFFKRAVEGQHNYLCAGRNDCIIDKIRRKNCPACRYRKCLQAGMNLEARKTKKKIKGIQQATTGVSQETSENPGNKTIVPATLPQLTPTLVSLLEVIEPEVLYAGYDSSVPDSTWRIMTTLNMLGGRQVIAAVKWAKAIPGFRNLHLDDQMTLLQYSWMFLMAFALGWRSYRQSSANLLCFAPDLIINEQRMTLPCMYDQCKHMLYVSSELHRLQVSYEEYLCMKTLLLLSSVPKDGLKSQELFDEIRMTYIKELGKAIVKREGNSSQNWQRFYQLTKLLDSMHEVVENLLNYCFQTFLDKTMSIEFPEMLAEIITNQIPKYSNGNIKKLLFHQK
Outline: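 Luciferase from a transiently transfected MMTV-LUC reporter was measured after 24 h compound exposure (≤1% DMSO) in A549 or MDA-MB-453 cells. For antagonism, the decrease of 10 nM dexamethasone-induced signal was calculated. For agonism, Emax was referenced to 300 nM dexamethasone.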

human GR = biological target: T2, human GR (Homo sapiens, UniProt P04150); assay: Transrepression Assay (GITAR), TNFα-β-lactamase reporter gene in U937 cells; assay type: cell-based; conditions: for GITAR Greater than by GRAMMER % SEP: GITAR Emax minus GRAMMER Emax; for EC50: inflection point, read-out: Transrepression U937 Cells GITAR IP; for EC50 / Transrepression U937 Cells GITAR Emax: U937 cells
T2 construct: U937 cells contain an endogenous glucocorticoid receptor (GR); endogenous in cells; host or cells: U937 cells stably transfected with the TNF-alpha promoter/beta-lactamase reporter
T2 sequence (P04150 1-777): T1 sequence (P04150 1-777)
Outline: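 Repression of PMA (5 ng/ml final)/LPS (100 ng/ml final)-induced TNF-α promoter activity, read as β-lactamase cleavage of CCF2-AM, in stably transfected U937 cells expressing native GR. Compound added 30-45 min before stimulation, overnight (~18 hr) 37° C; normalized to 100 nM dexamethasone (100%).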

[1] = biological target: T3, glucocorticoid receptor (GR) (Homo sapiens, UniProt P04150); assay: Ligand binding assay (GR BIND), 3H-dexamethasone displacement in MDA-MB-453 cell lysate; conditions: GR BIND Ki, Table 1
T3 sequence (P04150 1-777): T1 sequence (P04150 1-777)

[2] = U-937, U937 cells, activity repressed by 100 nM dexamethasone = 100%, Table 1, read-out: Transrepression U937 Cells GITAR Emax
[3] = U-937, text statement, 100 nM dexamethasone = 100%, read-out: maximal activity in the transrepression assay (GITAR)
[4] = activity repressed by 100 nM dexamethasone = 100%, Table 1

| Emax (Glucocorticoid Receptor) [%] | EC50 (Glucocorticoid Receptor) [nM] | GITAR Greater than by GRAMMER % SEP (human GR; Table 1) [%] | Emax (human GR; [2]) [%] | Emax (human GR; [3]) [%] | EC50 (human GR; Table 1) [nM] | Ki [1] [nM] | Transactivation A549 Cells GRAMMER Emax (Glucocorticoid Receptor) [%] | Transrepression U937 Cells GITAR Emax (human GR; [4]) [%] | SMILES |
| --- | --- | --- | --- | --- | --- | --- | --- | --- | --- |
| 55.6 | 46.3 | 29.8 | 85.4 | > 5 | 87.1 | 12.6 |  |  | C[C@]12Cc3cnn(-c4ccc(F)cc4)c3C=C1CC[C@@H]2C(=O)N(CCO)CC(O)C(F)(F)F (stereo partly drawn) [Compound 60, (4αR,5S)-1-(4-fluorophenyl)-N-(2-hydroxyethyl)-4α-methyl-N-(3,3,3-trifluoro-2-hydroxypropyl)-1,4,4α,5,6,7-hexahydrocyclopenta[f]indazole-5-carboxamide] |
| 82.4 | 55.6 | 14.0 | 96.5 | > 5 | 41.2 | 1 |  |  | CCCN(CC(O)C(F)(F)F)C(=O)[C@H]1CCC2=Cc3c(cnn3-c3ccc(F)cc3)C[C@@]21C (stereo partly drawn) [Compound 61, (4αR,5S)-1-(4-fluorophenyl)-4α-methyl-N-propyl-N-(3,3,3-trifluoro-2-hydroxypropyl)-1,4,4α,5,6,7-hexahydrocyclopenta[f]indazole-5-carboxamide] |
| 18 | 602 | 23.5 | 41.5 | > 5 | 688 | 6.9 |  |  | CCCN(CC1CCCO1)C(=O)[C@H]1CCC2=Cc3c(cnn3-c3ccc(F)cc3)C[C@@]21C (stereo partly drawn) [Compound 62, (4αR,5S)-1-(4-fluorophenyl)-4α-methyl-N-propyl-N-(tetrahydrofuran-2-ylmethyl)-1,4,4α,5,6,7-hexahydrocyclopenta[f]indazole-5-carboxamide] |
|  | 725 | 17.6 |  |  | 713 | 6 | 28.3 | 45.9 | CCCN(CC1CCCO1)C(=O)[C@H]1CCC2=Cc3c(cnn3-c3ccc(F)cc3)C[C@@]21C (stereo partly drawn) [Compound 63, (4αR,5S)-1-(4-fluorophenyl)-4α-methyl-N-propyl-N-(tetrahydrofuran-2-ylmethyl)-1,4,4α,5,6,7-hexahydrocyclopenta[f]indazole-5-carboxamide] |
| 27.1 | 674 | 9.5 | 36.6 | > 5 | 479 | 1.9 |  |  | C[C@]12Cc3cnn(-c4ccc(F)cc4)c3C=C1CC[C@@H]2C(=O)N(CC1CCC1)CC1CCCO1 (stereo partly drawn) [Compound 64, (4αR,5S)-N-(cyclobutylmethyl)-1-(4-fluorophenyl)-4α-methyl-N-(tetrahydrofuran-2-ylmethyl)-1,4,4α,5,6,7-hexahydrocyclopenta[f]indazole-5-carboxamide] |
| 72.8 | 431 | 8.4 | 81.2 | > 5 | 424 | 4.7 |  |  | CCCN(C[C@H](C)O)C(=O)[C@H]1CCC2=Cc3c(cnn3-c3ccc(F)cc3)C[C@@]21C [Compound 65, (4αR,5S)-1-4-(4-fluorophenyl)-N-[(2S)-2-hydroxypropyl]-4α-methyl-N-propyl-1,4,4α,5,6,7-hexahydrocyclopenta[f]indazole-5-carboxamide] |
| 67.6 | 613 | 10.5 | 78.1 | > 5 | 685 | 8.7 |  |  | CC(C)CN(C[C@H](C)O)C(=O)[C@H]1CCC2=Cc3c(cnn3-c3ccc(F)cc3)C[C@@]21C [Compound 66, (4αR,5S)-1-(4-fluorophenyl)-N-[(2S)-2-hydroxypropyl]-N-isobutyl-4α-methyl-1,4,4α,5,6,7-hexahydrocyclopenta[f]indazole-5-carboxamide] |
| 67 | 725 | 9.9 | 76.9 | > 5 | 558 | 5.1 |  |  | CC(C)CN(C[C@@H](C)O)C(=O)[C@H]1CCC2=Cc3c(cnn3-c3ccc(F)cc3)C[C@@]21C [Compound 67, (4αR,5S)-1-(4-fluorophenyl)-N-[(2R)-2-hydroxypropyl]-N-isobutyl-4α-methyl-1,4,4α,5,6,7-hexahydrocyclopenta[f]indazole-5-carboxamide] |
| 3.8 | 128 | 14.4 | 18.2 | > 5 | 1020 | 3.8 |  |  | C[C@]12Cc3cnn(-c4ccc(F)cc4)c3C=C1CC[C@@H]2C(=O)N(CCO)c1ccccc1 [Compound 68, (4αR,5S)-1-(4-fluorophenyl)-N-(2-hydroxyethyl)-4α-methyl-N-phenyl-1,4,4α,5,6,7-hexahydrocyclopenta[f]indazole-5-carboxamide] |
| 21.9 | 680 | 42.6 | 64.4 | > 5 | 714 | 5.4 |  |  | C[C@H](O)CN(CCc1ccccc1F)C(=O)[C@H]1CCC2=Cc3c(cnn3-c3ccc(F)cc3)C[C@@]21C [Compound 69, (4αR,5S)-1-(4-fluorophenyl)-N-[2-(2-fluorophenyl)ethyl]-N-[(2S)-2-hydroxypropyl]-4α-methyl-1,4,4α,5,6,7-hexahydrocyclopenta[f]indazole-5-carboxamide] |
| 62.5 | 231 | 24.5 | 86.9 | > 5 | 276 | 10.7 |  |  | CN(CC(O)C(F)(F)F)C(=O)[C@H]1CCC2=Cc3c(cnn3-c3ccc(F)cc3)C[C@@]21C (stereo partly drawn) [Compound 70, (4αR,5S)-1-(4-fluorophenyl)-N,4α-dimethyl-N-(3,3,3-trifluoro-2-hydroxypropyl)-1,4,4α,5,6,7-hexahydrocyclopenta[f]indazole-5-carboxamide] |
| 71.7 | 151 | 24.0 | 95.6 | > 5 | 85 | 2.6 |  |  | CCN(CC(O)C(F)(F)F)C(=O)[C@H]1CCC2=Cc3c(cnn3-c3ccc(F)cc3)C[C@@]21C (stereo partly drawn) [Compound 71, (4αR,5S)-N-ethyl-1-(4-fluorophenyl)-4α-methyl-N-(3,3,3-trifluoro-2-hydroxypropyl)-1,4,4α,5,6,7-hexahydrocyclopenta[f]indazole-5-carboxamide] |
|  | 37 | 19.6 |  |  | 43.9 | 2.3 | 71.2 | 90.8 | CCN(CC(O)C(F)(F)F)C(=O)[C@H]1CCC2=Cc3c(cnn3-c3ccc(F)cc3)C[C@@]21C (stereo partly drawn) [Compound 72, (4αR,5S)-N-ethyl-1-(4-fluorophenyl)-4α-methyl-N-(3,3,3-trifluoro-2-hydroxypropyl)-1,4,4α,5,6,7-hexahydrocyclopenta[f]indazole-5-carboxamide] |
| 71.1 | 152 | 18.4 | 89.5 | > 5 | 137 | 2.1 |  |  | C[C@H](O)CN(CCC(F)(F)F)C(=O)[C@H]1CCC2=Cc3c(cnn3-c3ccc(F)cc3)C[C@@]21C [Compound 73, (4αR,5S)-1-(4-fluorophenyl)-N-[(2S)-2-hydroxypropyl]-4α-methyl-N-(3,3,3-trifluoropropyl)-1,4,4α,5,6,7-. hexahydrocyclopenta[f]indazole-5-carboxamide] |
